# Source: ChEMBL document CHEMBL1144535, “3D pharmacophore based virtual screening of T-type calcium channel blockers” (Bioorg Med Chem, 2007)
# Activity calls are given as the source filed them. The calls are words filed in the database; no cut-off is given here.
# Columns and labels:
# Type in all cases: cell-based
# [1] = target: Voltage-dependent T-type calcium channel subunit alpha-1H (Homo sapiens) (UniProt O95180); assay: Inhibition of alpha-1H T-type calcium channel Cav3.2 expressed in Xenopus unfertilized oocytes at 100 uM by two-electrode voltage clamp method; conditions: Oocyte
# Voltage-dependent T-type calcium channel subunit alpha-1H (Homo sapiens), sequence (O95180 whole entry): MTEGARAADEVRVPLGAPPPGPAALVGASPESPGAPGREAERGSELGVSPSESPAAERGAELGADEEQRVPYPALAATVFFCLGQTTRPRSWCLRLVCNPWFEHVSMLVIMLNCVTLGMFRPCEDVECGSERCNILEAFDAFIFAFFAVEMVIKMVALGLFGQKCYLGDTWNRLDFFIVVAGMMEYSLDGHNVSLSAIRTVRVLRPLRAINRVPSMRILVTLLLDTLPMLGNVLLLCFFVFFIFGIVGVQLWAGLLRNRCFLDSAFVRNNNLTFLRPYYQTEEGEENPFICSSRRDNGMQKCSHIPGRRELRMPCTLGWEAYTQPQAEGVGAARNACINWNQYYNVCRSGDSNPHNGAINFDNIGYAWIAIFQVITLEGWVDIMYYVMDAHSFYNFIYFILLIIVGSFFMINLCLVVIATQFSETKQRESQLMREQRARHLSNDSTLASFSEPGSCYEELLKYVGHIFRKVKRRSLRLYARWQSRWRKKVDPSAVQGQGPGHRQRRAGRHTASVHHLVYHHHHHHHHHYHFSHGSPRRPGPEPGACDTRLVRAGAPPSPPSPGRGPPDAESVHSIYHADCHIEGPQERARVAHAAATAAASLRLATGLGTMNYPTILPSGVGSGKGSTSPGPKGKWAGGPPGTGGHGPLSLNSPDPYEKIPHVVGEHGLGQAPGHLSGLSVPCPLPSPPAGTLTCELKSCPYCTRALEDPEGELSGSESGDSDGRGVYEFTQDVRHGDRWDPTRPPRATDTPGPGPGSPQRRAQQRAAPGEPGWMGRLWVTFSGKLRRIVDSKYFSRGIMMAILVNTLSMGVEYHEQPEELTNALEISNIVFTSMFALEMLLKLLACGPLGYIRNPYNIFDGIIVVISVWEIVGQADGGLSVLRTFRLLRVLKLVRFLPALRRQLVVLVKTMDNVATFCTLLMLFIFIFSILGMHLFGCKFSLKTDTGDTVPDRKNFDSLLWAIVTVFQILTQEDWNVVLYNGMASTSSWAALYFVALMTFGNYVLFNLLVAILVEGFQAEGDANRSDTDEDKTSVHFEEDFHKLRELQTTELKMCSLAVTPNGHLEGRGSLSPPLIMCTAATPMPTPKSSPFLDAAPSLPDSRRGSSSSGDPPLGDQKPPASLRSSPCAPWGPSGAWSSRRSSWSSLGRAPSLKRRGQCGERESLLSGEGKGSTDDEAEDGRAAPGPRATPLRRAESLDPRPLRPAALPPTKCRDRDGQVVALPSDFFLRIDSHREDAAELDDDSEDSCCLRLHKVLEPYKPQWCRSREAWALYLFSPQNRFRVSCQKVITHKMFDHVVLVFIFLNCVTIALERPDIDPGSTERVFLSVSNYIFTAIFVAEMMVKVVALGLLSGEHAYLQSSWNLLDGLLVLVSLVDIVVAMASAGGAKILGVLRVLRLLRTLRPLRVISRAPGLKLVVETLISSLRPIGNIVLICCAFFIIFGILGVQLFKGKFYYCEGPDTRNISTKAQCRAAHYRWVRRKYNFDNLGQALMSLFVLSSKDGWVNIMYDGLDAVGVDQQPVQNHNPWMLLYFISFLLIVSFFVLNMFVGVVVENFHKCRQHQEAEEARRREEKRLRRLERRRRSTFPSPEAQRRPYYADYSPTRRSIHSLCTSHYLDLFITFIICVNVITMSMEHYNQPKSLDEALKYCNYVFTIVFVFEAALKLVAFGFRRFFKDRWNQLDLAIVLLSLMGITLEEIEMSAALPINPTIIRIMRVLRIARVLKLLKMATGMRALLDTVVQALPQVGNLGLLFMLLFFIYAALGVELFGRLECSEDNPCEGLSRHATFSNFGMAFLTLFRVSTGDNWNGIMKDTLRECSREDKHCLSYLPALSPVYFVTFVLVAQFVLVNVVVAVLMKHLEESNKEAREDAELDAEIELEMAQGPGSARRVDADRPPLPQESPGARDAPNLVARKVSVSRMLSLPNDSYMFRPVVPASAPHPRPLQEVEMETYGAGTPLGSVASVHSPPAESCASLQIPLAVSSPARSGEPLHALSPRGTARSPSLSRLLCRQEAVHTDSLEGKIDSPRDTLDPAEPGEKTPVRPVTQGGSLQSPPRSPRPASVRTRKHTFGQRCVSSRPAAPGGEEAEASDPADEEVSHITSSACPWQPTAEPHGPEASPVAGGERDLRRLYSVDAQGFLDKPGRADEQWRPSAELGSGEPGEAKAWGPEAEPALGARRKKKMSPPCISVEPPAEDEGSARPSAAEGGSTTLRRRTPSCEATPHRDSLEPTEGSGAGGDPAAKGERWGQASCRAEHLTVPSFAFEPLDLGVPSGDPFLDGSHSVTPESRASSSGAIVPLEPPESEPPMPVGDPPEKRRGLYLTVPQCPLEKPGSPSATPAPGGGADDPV
# [2] = target: T1, Voltage-dependent T-type calcium channel subunit alpha-1G (Homo sapiens, UniProt O43497); assay: Inhibition of alpha-1G T-type calcium channel expressed in HEK293 cells by electrophysiological method
# T1 sequence (O43497 whole entry): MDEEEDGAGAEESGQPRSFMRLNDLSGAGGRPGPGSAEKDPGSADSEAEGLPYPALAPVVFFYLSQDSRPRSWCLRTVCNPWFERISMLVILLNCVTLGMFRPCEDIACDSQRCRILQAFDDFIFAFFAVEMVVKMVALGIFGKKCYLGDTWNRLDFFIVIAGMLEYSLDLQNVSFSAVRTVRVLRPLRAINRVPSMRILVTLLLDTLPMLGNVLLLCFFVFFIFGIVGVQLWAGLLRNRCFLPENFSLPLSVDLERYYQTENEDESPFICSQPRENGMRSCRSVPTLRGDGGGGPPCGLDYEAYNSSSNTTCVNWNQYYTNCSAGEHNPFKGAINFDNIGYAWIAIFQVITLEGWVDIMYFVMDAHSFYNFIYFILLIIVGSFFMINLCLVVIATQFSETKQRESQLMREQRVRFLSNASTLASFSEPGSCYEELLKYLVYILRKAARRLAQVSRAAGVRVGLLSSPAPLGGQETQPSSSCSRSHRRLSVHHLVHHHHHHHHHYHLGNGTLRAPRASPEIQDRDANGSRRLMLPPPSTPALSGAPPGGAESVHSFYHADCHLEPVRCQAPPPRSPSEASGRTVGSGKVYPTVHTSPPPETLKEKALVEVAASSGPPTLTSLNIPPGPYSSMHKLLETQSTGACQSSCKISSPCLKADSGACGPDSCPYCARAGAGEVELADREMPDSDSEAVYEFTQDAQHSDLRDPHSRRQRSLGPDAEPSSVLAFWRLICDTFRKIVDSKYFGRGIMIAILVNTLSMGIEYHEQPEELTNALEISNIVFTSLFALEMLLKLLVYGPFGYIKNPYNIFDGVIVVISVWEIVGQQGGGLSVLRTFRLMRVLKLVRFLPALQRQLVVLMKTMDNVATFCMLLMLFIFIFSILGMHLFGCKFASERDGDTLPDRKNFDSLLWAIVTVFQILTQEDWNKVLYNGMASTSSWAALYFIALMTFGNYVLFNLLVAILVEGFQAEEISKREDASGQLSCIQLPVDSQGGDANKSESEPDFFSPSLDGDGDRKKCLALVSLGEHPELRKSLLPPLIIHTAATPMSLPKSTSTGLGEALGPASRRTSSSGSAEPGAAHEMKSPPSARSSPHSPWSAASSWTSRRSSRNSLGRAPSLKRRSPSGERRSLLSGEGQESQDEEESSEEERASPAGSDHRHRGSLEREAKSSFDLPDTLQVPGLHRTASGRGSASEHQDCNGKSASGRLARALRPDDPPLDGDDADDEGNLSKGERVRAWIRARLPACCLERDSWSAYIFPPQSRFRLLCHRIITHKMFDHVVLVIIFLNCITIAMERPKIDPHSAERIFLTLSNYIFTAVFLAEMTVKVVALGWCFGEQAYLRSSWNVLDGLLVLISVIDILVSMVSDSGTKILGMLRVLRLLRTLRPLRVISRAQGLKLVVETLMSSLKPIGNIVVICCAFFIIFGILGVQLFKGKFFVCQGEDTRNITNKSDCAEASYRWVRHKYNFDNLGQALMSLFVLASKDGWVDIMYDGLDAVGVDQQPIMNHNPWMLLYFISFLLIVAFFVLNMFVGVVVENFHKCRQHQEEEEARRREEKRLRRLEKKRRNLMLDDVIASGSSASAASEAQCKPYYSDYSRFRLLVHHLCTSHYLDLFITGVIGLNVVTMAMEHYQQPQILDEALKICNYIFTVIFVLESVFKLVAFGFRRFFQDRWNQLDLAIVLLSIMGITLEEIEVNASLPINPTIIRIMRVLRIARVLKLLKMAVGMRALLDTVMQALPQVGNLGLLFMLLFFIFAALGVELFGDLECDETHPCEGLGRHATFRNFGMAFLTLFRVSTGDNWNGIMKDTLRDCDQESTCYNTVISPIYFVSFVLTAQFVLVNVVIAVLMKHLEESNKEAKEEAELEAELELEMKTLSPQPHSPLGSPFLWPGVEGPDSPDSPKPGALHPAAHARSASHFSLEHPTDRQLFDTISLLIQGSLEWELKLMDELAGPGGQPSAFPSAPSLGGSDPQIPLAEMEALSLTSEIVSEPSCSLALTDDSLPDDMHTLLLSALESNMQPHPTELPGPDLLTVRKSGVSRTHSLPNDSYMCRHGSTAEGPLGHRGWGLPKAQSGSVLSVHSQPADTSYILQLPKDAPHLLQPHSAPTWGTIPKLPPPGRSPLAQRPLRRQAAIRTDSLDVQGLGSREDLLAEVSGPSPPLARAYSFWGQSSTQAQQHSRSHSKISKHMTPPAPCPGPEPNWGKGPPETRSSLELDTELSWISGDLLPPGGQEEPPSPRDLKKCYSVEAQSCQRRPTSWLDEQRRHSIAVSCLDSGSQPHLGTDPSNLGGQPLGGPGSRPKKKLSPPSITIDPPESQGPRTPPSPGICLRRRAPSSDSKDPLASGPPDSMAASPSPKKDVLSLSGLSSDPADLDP
# [3] = Inhibition of alpha-1B N-type calcium channel expressed in HEK293 cells by electrophysiological method
# [4] = target: T1, Voltage-dependent T-type calcium channel subunit alpha-1G; assay: Inhibition of alpha-1G T-type calcium channel expressed in HEK293 cells at 10 uM by electrophysiological method
SMILES,inhibition [1],other results
O=S(=O)(c1ccccc1)N(CC(O)CN(Cc1ccccc1)Cc1ccccc1)c1ccccc1 (configuration not stated),15.2%,–
CN(c1ccc(Br)cc1)S(=O)(=O)c1ccc2[nH]cc(C(=O)N3CCN(Cc4ccccc4)CC3)c(=O)c2c1,86.5%,–
O=C1CC(N2CCN(C(c3ccc(F)cc3)c3ccc(F)cc3)CC2)C(=O)N1c1ccc(Cl)cc1 (configuration not stated),51.8%,–
O=[N+]([O-])c1ccccc1S(=O)(=O)N1CCN(Cc2ccccc2Cl)CC1,7.57%,–
CC1CCN(CCCNC(=O)c2ccc(Cn3c(=S)[nH]c4ccc(Br)cc4c3=O)cc2)CC1,62.6%,–
CC1CC(C)CN(CCCNc2ccc(C(=O)Nc3ccc(C(F)(F)F)cc3)cc2[N+](=O)[O-])C1 (configuration not stated),56%,–
CC1CCN(CCNC(=O)c2ccc(-n3c(=S)[nH]c4ccccc4c3=O)cc2)CC1,–,Activity [1]: inactive
CCN(CC)CCOC(=O)c1ccc(N/C=C2/C(=O)NC(=O)N(CCc3ccccc3)C2=O)cc1,–,Activity [1]: inactive
FC(F)(F)c1cccc(N2CCN(Cn3nc(-c4ccccc4)n(-c4ccccc4)c3=S)CC2)c1,11.4%,–
O=C(NC1CCN(Cc2ccccc2)CC1)c1ccc2c(=O)n(Cc3ccc(Cl)cc3)c(=S)[nH]c2c1,–,Activity [1]: inactive
Cc1ccc(N2CCN(CCNCc3cc(-c4ccccc4C(F)(F)F)no3)CC2)c(C)c1,–,IC50 [2]: 1.53 µM
O=C(CN1CCN(C(c2ccccc2)c2ccccc2)CC1)NCc1ccc2c(c1)OCO2,12.5%,–
CCN1C(N2CCCCC2)=Nc2ccccc2C1CC(=O)NCc1ccc(NS(=O)(=O)c2ccc(C)cc2)cc1 (configuration not stated),–,IC50 [2]: 0.96 µM
COc1ccccc1-c1cc(CNCCN2CCN(c3cccc(C(F)(F)F)c3)CC2)on1,–,IC50 [2]: 2.04 µM
Cc1ccc(C(=O)Oc2ccc(NC3=NS(=O)(=O)c4ccccc43)cc2CN2CCCCC2)cc1,13.5%,–
CCN1CCN(CCCNC(=O)c2ccc3c(=O)n(Cc4ccc(Cl)cc4)c(=S)[nH]c3c2)CC1,–,IC50 [2]: 2.53 µM; IC50 [3]: 7.1 µM; inhibition [4]: 78.9%

SMILES,inhibition [1],other results
O=C1CC(N2CCN(C(c3ccccc3)c3ccccc3)CC2)C(=O)N1c1ccc(Cl)c(C(F)(F)F)c1 (configuration not stated),41.8%,–
O=C(CN(c1cccc([N+](=O)[O-])c1)S(=O)(=O)c1ccccc1)N1CCN(Cc2ccccc2)CC1,42.5%,–
O=C(O)c1ccc2c(=O)n(Cc3ccc(CNCCCN4CCN(c5cccc(Cl)c5)CC4)cc3)c(=S)[nH]c2c1,11.4%,–
CCN1CCN(c2cc(C)c3cc(NC(=O)/C=C/c4cccc(Cl)c4)ccc3n2)CC1,–,Activity [1]: inactive
O=C(NCCCN1CCCC1)c1ccc2c(=O)n(Cc3ccc(Cl)cc3)c(=S)[nH]c2c1,84.1%,IC50 [2]: 1.16 µM; IC50 [3]: 17.2 µM; inhibition [4]: 85.4%
O=C1CC(N2CCN(C(c3ccc(F)cc3)c3ccc(F)cc3)CC2)C(=O)N1c1ccc(Br)cc1 (configuration not stated),37.1%,–
CCN(CC)CCOC(=O)c1ccc(NC(=O)c2cc3ccccc3o2)cc1,34.4%,–
Cc1cccc(N2CCN(CC(=O)Nc3ccc(Cl)cc3C(=O)c3ccccc3Br)CC2C)c1 (configuration not stated),9.23%,–
COC(=O)c1ccc2c(=O)n(Cc3ccc(C(=O)N4CCC(N5CCCCC5)CC4)cc3)c(=S)[nH]c2c1,10.3%,–
CN(CCCNC(=O)c1ccc(-n2c(=S)[nH]c3ccc(Br)cc3c2=O)cc1)Cc1ccccc1,25.7%,–
O=C(NCCCn1ccnc1)c1ccc2c(=O)n(-c3ccccc3)c(=S)[nH]c2c1,2.47%,–
CCN(CC)CCNC(=O)c1ccc(NC(=O)c2cn(CC)c3nc(C)ccc3c2=O)cc1,41.9%,–
CN1CCN(C(=O)c2ccc3c(=O)n(Cc4ccc(Cl)cc4)c(=S)[nH]c3c2)CC1,–,IC50 [2]: 11.4 µM; inhibition [4]: 51.4%
O=C(NCCCN1CCOCC1)c1ccc2c(=O)n(-c3cccc(C(F)(F)F)c3)c(=S)[nH]c2c1,15.9%,–
Cc1ccc(CSc2nc3cc(C(=O)NCCCN4CCOCC4)ccc3c(=O)n2-c2ccc(F)cc2)cc1,–,Activity [1]: inactive
